Consider 1 molecule from paper PMC10059057, “Antileishmanial and Antiplasmodial Activities of Secondary Metabolites from the Root of Antrocaryon klaineanum Pierre (Anacardiaceae)” (Molecules, 2023).

Values after ≈ are worked out from the molar mass of the structure shown.

Series [1] in a line: In vitro cytotoxicity assay (resazurin) on Raw 264.7 macrophage cells. It counts as cell-based, murine. Conditions: mouse. Here is the method:
RAW 264.7 cells were obtained from RIKEN BioResource Centre Cell Bank (Tsukuba, Japan) and cultured in Dulbecco’s modified Eagle medium (DMEM) containing 1% penicillin–streptomycin and 10% FBS under 5% CO2 and humidified atmosphere at 37 °C and sub-cultured every 72 h.
(§1) A stock solution was prepared at 100 mg/mL for each extract and fraction and at 50 mg/mL for isolated compound in 100% DMSO (Sigma–Aldrich, Munich, Germany). Master plates were then prepared by mixing 2 μL of each stock solution with 198 μL of fresh incomplete RPMI 1 640 culture medium to yield a concentration of 1 mg/mL for extract and fraction and of 0.5 mg/mL (1% DMSO) followed by a 5-fold serial dilution. Extracts and fractions were tested at concentrations ranging from 0.16 to 100 μg/mL, and isolated compounds at concentrations ranging from 0.08 to 50 μg/mL.
The murine macrophages, Raw 264.7 cells were grown in a T-25 cm^2 flask containing the complete Dulbecco’s modified Eagle’s medium (Sigma–Aldrich, Munich, Germany) supplemented with 10% FBS (Sigma–Aldrich, Munich, Germany), 1% non-essential amino acids, and 1% (v/v) penicillin–streptomycin (Sigma–Aldrich, Munich, Germany) and incubated at 37° in a humidified atmosphere containing 5% CO2. For the experiments, 80–90% confluent cell culture was trypsinized, counted using a Neubauer haemacytometer, and seeded into a 96-well cell culture treated flat-bottomed plate (SARSTEDT, Inc. Newton, NC 28658, USA) at a cell density of 10^4 cells/well. Plates were incubated overnight to allow cell adhesion. Cells were then treated with serially diluted concentrations of crude extract, fractions, and isolated compounds for 48 h. Podophyllotoxin (Sigma–Aldrich, Munich, Germany) was used as positive control with the highest concentration of 10 μM. Afterwards, 10 μL of resazurin solution (0.15 mg/mL prepared in PBS) was added to each well, and the plates were additionally incubated for 4 h. Of important note, resazurin is a nonfluorescent, nontoxic, and cell-permeable blue dye which is used to quantify cell viability following its conversion into the highly fluorescent pink dye resorufin in response to changes in the reducing environment within the cytosol of the cell. The level of fluorescence that positively correlates with cell viability was measured using a Magellan Infinite M200 plate reader (Tecan, Germany) at an excitation wavelength of 530 nm and an emission wavelength of 590 nm. The growth proliferation percentage of cells was calculated with respect to the negative control. The concentration–response curves were plotted using inhibitory percentages versus the logarithm of the drug concentration to determine the concentration of drug that reduces cell viability by 50% (CC50) using GraphPad Prism 8.0 software. Selectivity indices (SI) [SI = CC50/IC50] were determined for each inhibitor based on their antiparasitic activity (IC50) and cell cytotoxicity (CC50 on Raw cells). Samples with SI greater than 10 were classified as poorly toxic toward Raw cells.

The target in the next series is cholinesterase. The arrangement: method as in PMID 24949478. Conditions: cited from earlier work.
The subject of series [2] is P. falciparum chloroquine-resistant (PfDd2). Kind of series: Antiplasmodial SYBR green I based fluorescence assay, chloroquine-resistant strain. The class given is cell-based. The following applies: Plasmodium falciparum; chloroquine-resistant strain Dd2, 72 h; read-out: PfDd2 IC50 ± SD.
From the text: (§2) The cryopreserved chloroquine-sensitive (Pf3D7-(MRA-102)), the multi-resistant (PfDd2) of Plasmodium falciparum, and the promastigote form of Leishmania donovani strains were obtained from BEI Resources (https://www.beiresources.org/ (accessed on 16 February 2019)) and are routinely cultured at the Antimicrobial and Biocontrol Agents Unit, University of Yaoundé I.
(§3) Plasmodium falciparum strains were maintained in 60 mm sterile petri dishes containing complete RPMI 1640 medium [RPMI 1640 (Sigma Aldrich) supplemented with 0.2% sodium bicarbonate (Sigma Aldrich), 0.5% Albumax II (Gibco), 1% hypoxanthine 100X (Gibco, Billings, MT, USA), 25 mM HEPES, and 0.04% gentamicin (Sigma Aldrich)] with fresh O^+ erythrocytes of healthy human volunteers suspended at 4% haematocrit (v/v) and incubated at 37 °C in a 5% CO2 humidified atmosphere. The medium was replaced daily with fresh complete medium to propagate the culture. Ten percent (10%) Giemsa-stained thin blood smears were examined microscopically under immersion oil to monitor cell-cycle transition and parasitaemia.
as §1
(§4) The use of mixed-stage cultures can enable the test molecules to interact with all the three stages (ring, trophozoite, and schizont) found during a 48-h life cycle of P. falciparum in culture. Moreover, starting the experiment with a synchronized ring stage culture provides the advantage of monitoring the growth inhibitory effect of test samples without a rise-up in parasitemia during the ring–trophozoite–schizont transitions. For this particular reason, parasites were synchronized at the ring stage by serial treatment with 5 % sorbitol for two days prior to each experiment with respect to Lambros and Vanderberg, 1979 [44] protocol.
(§5) Drug sensitivity assay was carried out in 96-well microtitration plates using the SYBR green I based fluorescence assay (Smilkstein et al., 2004). […] The fact that human red blood host cells are anucleate allows the use of SYBR green for the proper monitoring of the growth of the malarial parasite.
(§6) The 96 wells flat-bottom assay plates with sorbitol-synchronized ring stage parasites (haematocrit: 1%, parasitaemia: 2%, 90 μL) were incubated in the presence of 10 µL of pre-diluted extracts, fractions, isolated compounds, and reference drugs [Chloroquine and Artemisinin (Sigma–Aldrich, Munich, Germany)] at different triplicate concentrations (100 µg/mL–0.16 µg/mL for extract/fractions and 50 µg/mL–0.08 µg/mL for compounds). After an incubation period of 72 h at 37 °C, 100 μL of the SYBR Green I solution prepared in a lysis buffer (0.2 µL of 10,000× SYBR Green I per mL of lysis buffer) consisting of Tris (20 mM; pH 7.5), EDTA (5 mM), saponin (0.008%; m/v), and Triton X-100 (0.08%; v/v) was added to each well, mixed twice gently with a multi-channel pipette, and incubated in the dark at 37 °C for 1 h. Fluorescence was measured using the microplate reader Infinite M200 (Tecan) at an excitation and emission wavelength of 485 and 538 nm, respectively. […] The data analysis was performed with GraphPad Prism 8.0 software, fitting by nonlinear regression, and concentration–response curves were generated to determine the median inhibitory concentration (IC50) for each sample.
The resistance index (RI) was determined as the ratio of the IC50 of the samples on the multi-resistant strain Dd2 and the IC50 on the chloroquine-sensitive strain 3D7 as reported by Douanla et al..

The test system of series [3] is L. donovani promastigotes 1S (MHOM/SD/62/1S). The series is described as follows: Antileishmanial resazurin fluorimetric assay on promastigotes. The following applies: Leishmania donovani; promastigotes, resazurin assay; read-out: L. donovani Promastigote IC50 ± SD. It counts as cell-based, Leishmania donovani. On the procedure: as §2
Leishmania donovani promastiogtes were cultured in Medium 199 (Sigma, Darmstadt, Germany) supplemented with 10% Heat-Inactivated fetal Bovine Serum (HIFBS) (Sigma, Darmstadt, Germany) and 100 IU/mL penicillin/streptomycin. The culture was maintained in 75 cm^2 cell culture flask at 28 °C and sub-cultured every 72 h.
as §1
The antileishmanial activity of crude extracts, derived fractions, and isolated compounds against cultured L. donovani promastigotes was evaluated using the resazurin fluorimetric assay as described by Siqueira-Neto et al. (2010). Briefly, promastigotes from a logarithmic phase culture (4 × 10^5 cells/mL; 90 μL) were seeded in 96-well microplates and treated with 10 μL of inhibitors at different triplicate concentrations (100 µg/mL–0.16 µg/mL for extract/fractions and 50 µg/mL–0.08 µg/mL for compounds). Plates were incubated for 28 h at 28 °C, followed by the addition of […] resazurin (0.15 mg/mL in DPBS; Sigma, Darmstadt, Germany). The negative and positive controls were, respectively, 0.1% DMSO and amphotericin B (Sigma, Darmstadt, Germany) (10–0.016 μg/mL) treated wells. After an additional incubation for 44 h, plates were then read on a Magelan Infinite M200 fluorescence plate reader (Tecan, Männedorf, Switzerland) at excitation and emission wavelengths of 530 and 590 nm, respectively. For each sample, growth inhibition percentages were calculated with Microsoft Excel Software; then, from the nonlinear regression fit, concentration–response curves were generated to deduce the median inhibitory concentration (IC50) using the GraphPad Prism 8.0 software.
(The colour change of resazurin is a common sign of viable cells or microbes.)

The subject of series [4] is Leishmania donovani strain MHOM/IN/1983/AG83. Also on record: method as in PMID 24949478. The following applies: scopoletin from leaves of Canarium patentinervium; cited from earlier work.
A further series relates to Leishmania. Also on record: method as in PMID 30663371. The following applies: another study; cited from earlier work.
In series [5] the test system is P. falciparum chloroquine-sensitive (Pf3D7). The series is described as follows: Antiplasmodial SYBR green I based fluorescence assay, chloroquine-sensitive strain. It counts as cell-based. Conditions: Plasmodium falciparum; chloroquine-sensitive strain 3D7, 72 h; read-out: Pf3D7 IC50 ± SD.
From the text: as §2, §3, §1, §4, §5, §6

What is called CC50 is the concentration at which the toxic effect on the cells reaches its halfway point. Lower therefore signals harm at low concentration. The term IC50 denotes the concentration at which inhibition is half-maximal. In the case of `COc1cc2ccc(=O)oc2cc1O` [Scopoletin (3), 7-hydroxy-6-methoxycoumarin], the 50% cytotoxic concentration (CC50) at 48 h in series [1] was > 500 µg/mL. Moreover, the “anticholinesterase activity IC50” value at cholinesterase is reported as 51 µg/mL. The IC50 in series [2] is > 50 µg/mL; in series [3], 6.4 ± 0.8 µg/mL (≈ 33.3 µM); in series [5], > 50 µg/mL. Also, the “IC50 against Leishmania donovani strain MHOM/IN/1983/AG83” value in series [4] is listed as 163.3 µg/mL (≈ 850 µM). In addition, in the series with Leishmania, the “antileishmanial activity IC50” value is 6.804 µg/mL.
